How the values were obtained:
Pseudomonas sp. = experiment: Prevention effect for artificial infection (abdominal injection of bacteria); assay type: in vivo, Bastardhalibut; conditions: for Mortality during Cultivation: dead of 20 fish
Protocol: (§1) The water temperature was maintained at 20° C. (±2° C. ) throughout the experiment.
(§2) As the same method of above Experiment 1, fishes of both control group and experiment group were prepared and artificially infected by direct abdominal injection of Edwardsiella tarda 10^5 CFU per 1 fish. Each experimental fish was moved to fish tanks for monitoring and monitored for mortality according to infection for 2 weeks and viability after 2 weeks.
(§3) Bastardhalibut and Sebastes schlegeli were infected by Pseudomonas sp. through abdominal injection with the same method of fish breeding; δ-aminolevulinic acid treatment and artificial infection carried out in Experiment 1 and 2. Each experimental fish was moved to fish tanks for monitoring and monitored for mortality according to infection for 2 weeks.

Scutica = experiment: Prevention effect for Scutica artificial infection of fish body in vivo; conditions: for Mortality during Cultivation: fish number 20
Protocol: The water temperature was maintained at 20° C. (±2° C.) throughout the experiment.

Birnavirus = experiment: Treatment effect on eel disease of Birnavirus (field); assay type: in vivo; conditions: 0.1˜10 ppm added to the farm; after 3 weeks administration
Protocol: In the example, the experiment was carried out in the field at the Eel Aguacultural Farm, Gochang and Kunsan, in Chunbuk, Korea. Eels were dead by infection of Birnavirus, which was easely confirmed by microscopical or electron microscopical observation.
ALA, at the concentration range of 0.1˜10 ppm was added to the farm for 3 months. After 3 weeks administration, motality was decreased to less than 10% (1˜2kg).

Streptococcus sp. = experiment: Prevention effect for artificial infection (abdominal injection of bacteria); assay type: in vivo, Bastardhalibut; conditions: for Mortality during Cultivation: dead of 20 fish
Protocol: as §1, §2
as §3, with “Streptococcus” for “Pseudomonas”, “by” for “through”, “breeding,” for “breeding;”, “weeks. […] The treated group, with δ-aminolevulinic acid by tank administration method and oral administration method, has shown viability of higher than 65%.” for “weeks.”

[1] = system: FHM (Fathead Minnow Epithelioma); conditions: 24 h
Protocol: (§4) δ-aminolevulinic acid feed were prepared to 1.0 M concentration (0. 167 g/mL HBSS) and diluted by 10-fold dilution method. 100 μl of each fish cell line suspension of 2.5×10^5 were placed into 96-well microplate and then, 100 μl of each of the resulting diluted solution, 4 well/dilution unit, were added respectively. Fish cell lines, which were used for this cell toxicity experiment of δ-aminolevulinic acid, were RTG-2 (Rainbow Trout Gonad), FHM (Fathead Minnow Epithelioma) and CHSE (Chinook Salmon Embryo) lotted out from Dr. M. Yoshimizu of the Department of Fisheries, Hokkaido University, Japan. For these experimental cells, 100 U/mL penicillin (Sigma), 100 μl/mL streptomycin (Sigma) and MEM media supplemented with 5% fetal bovine serum (FBS, Gibco) for cell culture were used. Cultured cells in 96-well microplate was incubated for 3 hrs at 15° C. and δ-aminolevulinic acid were added to wells at amounts of 100 μl of 0, 1.0, 10, 50 and 100 mM and incubated for 24 hrs at 18° C. As a control group, instead of δ-aminolevulinic acid, HBSS was added at the same amount. […] Absorbance was measured with an ELISA reader at 570 μl.

[2] = system: CHSE (Chinook Salmon Embryo); conditions: 24 h
Protocol: as §4

[3] = system: White Spot Syndrome Virus (WSSV); experiment: Prevention for White Spot Syndrome Virus infected shrimp; assay type: in vivo, Penaeus Chinesis
Protocol: The Shrimps (Penaeus Chinesis, size 6˜8 cm) were immersed in 0.01˜10 ppm of EnviroVax for 1.5 hr during 3 days and injected viral homogenate at 4 day.
The Viral homogenate was prepared as follows:
Homogenize 1 g of tissue (gill and stomach) in 1 ml PBS.
Centrifuge at 2,000 rpm for 10 min. at 4° C.
Filter the supernatant by using the 0.45 μm membrane filter.
Dilute the filtrate (1 part of filtrate to 10 parts of PBS).

[4] = orally, 1.0 ppm in feed, Bastardhalibut
[5] = orally, 10 ppm in feed, Bastardhalibut
[6] = orally, 100 ppm in feed, Bastardhalibut
[7] = to fish tanks, 0.01 ppm, Bastardhalibut
[8] = to fish tanks, 0.1 ppm, Bastardhalibut
[9] = to fish tanks, 1.0 ppm, Bastardhalibut
[10] = Administration to fish tanks, 0.01 ppm, Bastardhalibut
[11] = Administration to fish tanks, 0.01 ppm, Sebastes schlegeli
[12] = Administration to fish tanks, 0.1 pm, Bastardhalibut
[13] = Administration to fish tanks, 0.1 pm, Sebastes schlegeli
[14] = Administration to fish tanks, 1.0 ppm, Bastardhalibut
[15] = Administration to fish tanks, 1.0 ppm, Sebastes schlegeli
[16] = Administration to fish tanks, 5.0 ppm, Bastardhalibut
[17] = Administration to fish tanks, 5.0 ppm, Sebastes schlegeli
[18] = Administration to fish tanks, 10 ppm, Bastardhalibut
[19] = Administration to fish tanks, 10 ppm, Sebastes schlegeli
[20] = Administration to fish tanks, 50 ppm, Bastardhalibut
[21] = Administration to fish tanks, 50 ppm, Sebastes schlegeli
[22] = Oral Adminstration, 0.1 ppm, Bastardhalibut
[23] = Oral Adminstration, 0.1 ppm, Sebastes schlegeli
[24] = Oral Adminstration, 1.0 ppm, Bastardhalibut
[25] = Oral Adminstration, 1.0 ppm, Sebastes schlegeli
[26] = Oral Adminstration, 5 ppm, Bastardhalibut
[27] = Oral Adminstration, 5 ppm, Sebastes schlegeli
[28] = Oral Adminstration, 10 ppm, Bastardhalibut
[29] = Oral Adminstration, 10 ppm, Sebastes schlegeli
[30] = Oral Adminstration, 50 ppm, Bastardhalibut
[31] = Oral Adminstration, 50 ppm, Sebastes schlegeli
[32] = Oral Adminstration, 100 ppm, Bastardhalibut
[33] = Oral Adminstration, 100 ppm, Sebastes schlegeli

**Q.** Which results are given for `NCC(=O)CCC(=O)O` [δ-aminolevulinic acid]?
**A.** Viability (Pseudomonas sp.; orally, 0.1 ppm in feed): 60%; Mortality during Cultivation (Pseudomonas sp.; orally, 0.1 ppm in feed): 8; Viability (Pseudomonas sp.; [4]): 55%; Mortality during Cultivation (Pseudomonas sp.; [4]): 9; Viability (Pseudomonas sp.; [5]): 90%; Mortality during Cultivation (Pseudomonas sp.; [5]): 2; Viability (Pseudomonas sp.; [6]): 90%; Mortality during Cultivation (Pseudomonas sp.; [6]): 2; Viability (Pseudomonas sp.; [7]): 60%; Mortality during Cultivation (Pseudomonas sp.; [7]): 8; Viability (Pseudomonas sp.; [8]): 70%; Mortality during Cultivation (Pseudomonas sp.; [8]): 6; Viability (Pseudomonas sp.; [9]): 90%; Mortality during Cultivation (Pseudomonas sp.; [9]): 2; Viability (Pseudomonas sp.; to fish tanks, 10 ppm): 90%; Mortality during Cultivation (Pseudomonas sp.; to fish tanks, 10 ppm): 2; Viablity (%) (Scutica; [10]): 60%; Mortality during Cultivation (Scutica; [10]): 8; Viablity (%) (Scutica; [11]): 60%; Mortality during Cultivation (Scutica; [11]): 8; Viablity (%) (Scutica; [12]): 75%; Mortality during Cultivation (Scutica; [12]): 7; Viablity (%) (Scutica; [13]): 60%; Mortality during Cultivation (Scutica; [13]): 8; Viablity (%) (Scutica; [14]): 75%; Mortality during Cultivation (Scutica; [14]): 5; Viablity (%) (Scutica; [15]): 70%; Mortality during Cultivation (Scutica; [15]): 6; Viablity (%) (Scutica; [16]): 85%; Mortality during Cultivation (Scutica; [16]): 3; Viablity (%) (Scutica; [17]): 85%; Mortality during Cultivation (Scutica; [17]): 3; Viablity (%) (Scutica; [18]): 85%; Mortality during Cultivation (Scutica; [18]): 3; Viablity (%) (Scutica; [19]): 85%; Mortality during Cultivation (Scutica; [19]): 3; Viablity (%) (Scutica; [20]): 80%; Mortality during Cultivation (Scutica; [20]): 4; Viablity (%) (Scutica; [21]): 80%; Mortality during Cultivation (Scutica; [21]): 4; Viablity (%) (Scutica; [22]): 70%; Mortality during Cultivation (Scutica; [22]): 6; Viablity (%) (Scutica; [23]): 65%; Mortality during Cultivation (Scutica; [23]): 7; Viablity (%) (Scutica; [24]): 70%; Mortality during Cultivation (Scutica; [24]): 6; Viablity (%) (Scutica; [25]): 75%; Mortality during Cultivation (Scutica; [25]): 5; Viablity (%) (Scutica; [26]): 85%; Mortality during Cultivation (Scutica; [26]): 3; Viablity (%) (Scutica; [27]): 85%; Mortality during Cultivation (Scutica; [27]): 3; Viablity (%) (Scutica; [28]): 95%; Mortality during Cultivation (Scutica; [28]): 1; Viablity (%) (Scutica; [29]): 95%; Mortality during Cultivation (Scutica; [29]): 1; Viablity (%) (Scutica; [30]): 95%; Mortality during Cultivation (Scutica; [30]): 1; Viablity (%) (Scutica; [31]): 95%; Mortality during Cultivation (Scutica; [31]): 1; Viablity (%) (Scutica; [32]): 90%; Mortality during Cultivation (Scutica; [32]): 2; Viablity (%) (Scutica; [33]): 95%; Mortality during Cultivation (Scutica; [33]): 1; mortality (Birnavirus): less than 10%; Viability (Streptococcus sp.; orally, 0.1 ppm in feed): 65%; Mortality during Cultivation (Streptococcus sp.; orally, 0.1 ppm in feed): 7; Viability (Streptococcus sp.; orally, 1.0 ppm in feed): 65%; Mortality during Cultivation (Streptococcus sp.; orally, 1.0 ppm in feed): 7; Viability (Streptococcus sp.; orally, 10 ppm in feed): 80%; Mortality during Cultivation (Streptococcus sp.; orally, 10 ppm in feed): 4; Viability (Streptococcus sp.; orally, 100 ppm in feed): 85%; Mortality during Cultivation (Streptococcus sp.; orally, 100 ppm in feed): 3; Viability (Streptococcus sp.; to fish tanks, 0.01 ppm): 60%; Mortality during Cultivation (Streptococcus sp.; to fish tanks, 0.01 ppm): 8; Viability (Streptococcus sp.; to fish tanks, 0.1 ppm): 65%; Mortality during Cultivation (Streptococcus sp.; to fish tanks, 0.1 ppm): 7; Viability (Streptococcus sp.; to fish tanks, 1.0 ppm): 75%; Mortality during Cultivation (Streptococcus sp.; to fish tanks, 1.0 ppm): 5; Viability (Streptococcus sp.; to fish tanks, 10 ppm): 85%; Mortality during Cultivation (Streptococcus sp.; to fish tanks, 10 ppm): 3; safe range of toxicity [1]: below 10 mM; safe range of toxicity [2]: below 10 mM; Cumulative mortality ([3]; 0.01 ppm, after injection for 3 weeks): 100%; Mortality after injection for 3 weeks ([3]; 0.01 ppm, day 1, 50 shrimp): 0; Mortality after injection for 3 weeks ([3]; 0.01 ppm, day 2, 50 shrimp): 0; Mortality after injection for 3 weeks ([3]; 0.01 ppm, day 3, 50 shrimp): 15; Mortality after injection for 3 weeks ([3]; 0.01 ppm, day 4, 50 shrimp): 20; Mortality after injection for 3 weeks ([3]; 0.01 ppm, day 5, 50 shrimp): 12; Mortality after injection for 3 weeks ([3]; 0.01 ppm, day 6, 50 shrimp): 3; Cumulative mortality ([3]; 0.1 ppm, after injection for 3 weeks): 12%; Mortality after injection for 3 weeks ([3]; 0.1 ppm, day 1, 50 shrimp): 0; Mortality after injection for 3 weeks ([3]; 0.1 ppm, day 2, 50 shrimp): 0; Mortality after injection for 3 weeks ([3]; 0.1 ppm, day 3, 50 shrimp): 2; Mortality after injection for 3 weeks ([3]; 0.1 ppm, day 4, 50 shrimp): 3; Mortality after injection for 3 weeks ([3]; 0.1 ppm, day 5, 50 shrimp): 1; Mortality after injection for 3 weeks ([3]; 0.1 ppm, day 6, 50 shrimp): 0; Mortality after injection for 3 weeks ([3]; 0.1 ppm, day 7, 50 shrimp): 0; Mortality after injection for 3 weeks ([3]; 0.1 ppm, day 21, 50 shrimp): 0; Cumulative mortality ([3]; 1.0 ppm, after injection for 3 weeks): 8%; Mortality after injection for 3 weeks ([3]; 1.0 ppm, day 1, 50 shrimp): 0; Mortality after injection for 3 weeks ([3]; 1.0 ppm, day 2, 50 shrimp): 1; Mortality after injection for 3 weeks ([3]; 1.0 ppm, day 3, 50 shrimp): 2; Mortality after injection for 3 weeks ([3]; 1.0 ppm, day 4, 50 shrimp): 1; Mortality after injection for 3 weeks ([3]; 1.0 ppm, day 5, 50 shrimp): 0; Mortality after injection for 3 weeks ([3]; 1.0 ppm, day 6, 50 shrimp): 0; Mortality after injection for 3 weeks ([3]; 1.0 ppm, day 7, 50 shrimp): 0; Mortality after injection for 3 weeks ([3]; 1.0 ppm, day 21, 50 shrimp): 0; Cumulative mortality ([3]; 10 ppm, after injection for 3 weeks): 6%; Mortality after injection for 3 weeks ([3]; 10 ppm, day 1, 50 shrimp): 0; Mortality after injection for 3 weeks ([3]; 10 ppm, day 2, 50 shrimp): 0; Mortality after injection for 3 weeks ([3]; 10 ppm, day 3, 50 shrimp): 3; Mortality after injection for 3 weeks ([3]; 10 ppm, day 4, 50 shrimp): 0; Mortality after injection for 3 weeks ([3]; 10 ppm, day 5, 50 shrimp): 0; Mortality after injection for 3 weeks ([3]; 10 ppm, day 6, 50 shrimp): 0; Mortality after injection for 3 weeks ([3]; 10 ppm, day 7, 50 shrimp): 0; Mortality after injection for 3 weeks ([3]; 10 ppm, day 21, 50 shrimp): 0; Cumulative mortality ([3]; immersion 1.0 ppm, 1.5 hr during 3 days before virus injection, 3 weeks): 8%; Cumulative mortality ([3]; immersion 10 ppm, 1.5 hr during 3 days before virus injection, 3 weeks): 6%

Source: US20010053796A1, “Delta-aminolevulinic acid for prevention and treatment of infection microorganisms and parasite” (priority 2000, published 2001)
